Experiment: xn = mol fraction of the nth substance listed
Conditions: 100 kPa

## CCCC[n+]1ccn(C)c1.[Cl-] + NCCO
293 K, x2 = 0.8
  viscosity: 36.2 mPa·s
298 K, x2 = 0
  viscosity: 19 mPa·s
298 K, x2 = 0.5
  viscosity: 134 mPa·s
298 K, x2 = 0.677
  viscosity: 47.4 mPa·s
298 K, x2 = 0.8
  viscosity: 28.1 mPa·s
303 K, x2 = 0.8
  viscosity: 22.4 mPa·s
303.1 K, x2 = 0
  viscosity: 15.2 mPa·s
313.1 K, x2 = 0
  viscosity: 9.93 mPa·s
313.1 K, x2 = 0.8
  viscosity: 14.9 mPa·s
323.1 K, x2 = 0
  viscosity: 6.88 mPa·s
323.1 K, x2 = 0.5
  viscosity: 36.7 mPa·s
323.1 K, x2 = 0.677
  viscosity: 16.6 mPa·s
323.1 K, x2 = 0.8
  viscosity: 10.5 mPa·s
333.1 K, x2 = 0.8
  viscosity: 7.41 mPa·s
333.2 K, x2 = 0
  viscosity: 5.03 mPa·s
333.2 K, x2 = 0.677
  viscosity: 12 mPa·s
343.2 K, x2 = 0
  viscosity: 3.69 mPa·s
343.2 K, x2 = 0.5
  viscosity: 17.9 mPa·s
343.2 K, x2 = 0.677
  viscosity: 9.1 mPa·s
343.2 K, x2 = 0.8
  viscosity: 5.58 mPa·s

Source: a compilation of properties of binary mixtures (doi:10.1039/c5cp04050g)
